From patent US10973251B1, “Nutritional treatment for cancer” (The Board of Trustees of the Leland Stanford Junior …, priority 2015, dated 2021)

Tests used:
Type in all cases: cell-based, human
H520 = assay: relative growth in dropout media (XTT / CellTiter-Glo); conditions: for relative growth: three days
Experimental: (§1) To establish the screening assay for the nutritional weakness of cancer cells, 5 human blood cancer cell lines, 4 human lung cancer cell lines, 1 human colon cancer cell line, 1 human liver cancer cell line, 5 human breast cancer cell lines, and 3 human prostate cancer cell lines were used (Table 1). All 19 cell lines were cultured in reconstituted complementary RPM11640 based media R-comp (Table 2) for more than 10 days before screening assays.
(§2) To test for nutritional weaknesses of cancer cell lines or primary cancer cells, each individual non-essential amino acid was dropped out from the R-comp media (Table 2). Multiple amino acid dropout media was used to test combinatorial effects. Prior to the experiments, cells were first acclimated in R-comp media, and then harvested and washed in EBSS solution. The cell density was adjusted to 1-3×10^5 cells/ml before adding to equal volumes of 2× dropout media plus 2× R-comp (positive control) in a 96-well plate. The plates were then placed in an incubator set at 37° C. with a 5% CO2 supply. Five technical replicates were used for each medium treatment. For each cell line, at least three biological replicates were performed with 2 time-points (day 1 and day 3).
(§3) Cell growth was analyzed with two cell viability methods (XTT and CellTiter-Glo-based assays). In the XTT-based assay, cell growth is measured by absorbance at 450 nm after adding the XTT reagent to each culture and incubating under the same culture conditions for 2 hours according to the manufacturer's instructions (ThermoFisher X6493). Absorption at 690 nm was also measured as background and subtracted from absorption at 450 nm. In the CellTiter-Glo-based assay (Promega, G7572), cell growth is measured by luminescence with a dwelling time of 200 milliseconds on a Tecan plate reader.
(§4) The relative growth is calculated with the following equation: Growth %=(readingdropout−average(readingsblank))/(average(readingsR-comp)−average(readingsblank))×100%

H661 = assay: as above; conditions: for relative growth: three days; for relief of suppressed growth by augmented supplementation (in words): cystine and tyrosine dropouts, 20 times
Experimental: as §1, §2, §3, §4

H69 = assay: as above; conditions: for relative growth: three days
Experimental: as §1, §2, §3, §4

HCC1187 = assay: as above; conditions: —Cys (5x Met), vitamin supplementation 50x, three days, Cell-Titer-Glo
Experimental: as §1, §2, §3, §4

HCT116 = assay: as above; conditions: for growth with vitamin supplementation in the absence of cystine (in words): 50×
Experimental: as §1, §2, §3, §4

K562 = assay: as above; conditions: for relative growth: —Cys, three days, CellTiter-Glo
Experimental: as §1, §2, §3, §4

U937 = assay: as above; conditions: for relief of suppressed growth by augmented supplementation (in words): cystine and tyrosine dropouts, 20 times
Experimental: as §1, §2, §3, §4

cancer cell lines = assay: growth assay in dropout media, cancer cell lines as a group; conditions: up to 50× strength; cell lines sensitive to cystine dropout
Experimental: as §1
To test for nutritional weaknesses of cancer cell lines or primary cancer cells, each individual non-essential amino acid was dropped out from the R-comp media (Table 2). Multiple amino acid dropout media was used to test combinatorial effects. Prior to the experiments, cells were first acclimated in R-comp media, and then harvested and washed in EBSS solution. […]
as §3, with “reader. […]” for “reader.”

HCC1599 = assay: relative growth in dropout media (XTT / CellTiter-Glo)
Experimental: as §1, §2, §3, §4

MDA-MB-453 = assay: as above
Experimental: as §1, §2, §3, §4

C4-28 = assay: as above; conditions: —Cys (5x Met), vitamin supplementation 50x, three days, Cell-Titer-Glo
Experimental: as §1, §2, §3, §4

GA10 = assay: as above
Experimental: as §1, §2, §3, §4

H1437 = assay: as above
Experimental: as §1, §2, §3, §4

HCC70 = assay: as above; conditions: —Cys (5x Met), vitamin supplementation 50x, three days, Cell-Titer-Glo
Experimental: as §1, §2, §3, §4

HL60 = assay: as above; conditions: —Cys (5x Met), vitamin supplementation 50x, three days, Cell-Titer-Glo
Experimental: as §1, §2, §3, §4

HepG2 = assay: as above; conditions: —Cys (5x Met), vitamin supplementation 50x, three days, Cell-Titer-Glo
Experimental: as §1, §2, §3, §4

Jurkat = assay: as above
Experimental: as §1, §2, §3, §4

MDA-MB-231 = assay: as above; conditions: —Cys (5x Met), vitamin supplementation 50x, three days, Cell-Titer-Glo
Experimental: as §1, §2, §3, §4

PC-3 = assay: as above; conditions: —Cys (5x Met), vitamin supplementation 50x, three days, Cell-Titer-Glo
Experimental: as §1, §2, §3, §4

VCaP = assay: as above; conditions: —Cys (5x Met), vitamin supplementation 50x, three days, Cell-Titer-Glo
Experimental: as §1, §2, §3, §4

[1] = —Cys (5x Met), vitamin supplementation 50x, Cell-Titer-Glo
[2] = 0.1× level of cystine supplementation
[3] = —Cys, +Cys 0.01x (5x Met), CellTiter-Glo
[4] = —Cys, +Cys 0.02x (5x Met), CellTiter-Glo
[5] = —Cys, +Cys 0.05x (5x Met), CellTiter-Glo
[6] = —Cys, +Cys 0.1x (5x Met), CellTiter-Glo
[7] = —Cys, +Cys 0.5x (5x Met), CellTiter-Glo
[8] = —Cys (5x Met), vitamin supplementation 50x, three days, Cell-Titer-Glo
[9] = —Cys, +Glut 2.5x, CellTiter-Glo
[10] = —Cys, +Glut 100x, CellTiter-Glo

Molecule: Cc1ncc(CO)c(CO)c1O [B6, pyridoxine]
- relative growth (H520; [1]): 0.2%
- relative growth (H661; [1]): 0.9%
- relative growth (H69; [1]): 5.2%
- relative growth (HCC1187): 2.2%

Molecule: Cc1cc2nc3c(=O)[nH]c(=O)nc-3n(C[C@H](O)[C@H](O)[C@H](O)CO)c2cc1C [B2, riboflavin]
- relative growth (H520; [1]): 0.3%
- relative growth (H661; [1]): 0.2%
- relative growth (H69; [1]): 5.0%
- relative growth (HCC1187): 1.0%
- growth with vitamin supplementation in the absence of cystine (in words) (HCT116): even more drastic growth suppression

Molecule: CSCC[C@H](N)C(=O)O [+Met, methionine]
- relative growth (H520; —Cys, +Met 10x, CellTiter-Glo): 7.3%
- relative growth (H520; —Cys, +Met 50x, CellTiter-Glo): 16.7%
- relief of suppressed growth by augmented supplementation (in words) (H661): not brought back
- relative growth (H661; —Cys, +Met 10x, CellTiter-Glo): 0.1%
- relative growth (H661; —Cys, +Met 50x, CellTiter-Glo): 0.1%
- relative growth (H69; —Cys, +Met 10x, CellTiter-Glo): 1.2%
- relative growth (H69; —Cys, +Met 50x, CellTiter-Glo): 1.2%
- restoration of growth in the absence of cystine (in words) (HCT116; 10×): substantially restore HCT116 growth
- relative growth (K562; +Met 10x): 1.6%
- relative growth (K562; +Met 50x): 1.1%
- relief of suppressed growth by augmented supplementation (in words) (U937): not brought back
- promotion of growth under cystine dropout (in words) (cancer cell lines): failed to promote the growth

Molecule: N[C@@H](CSSC[C@H](N)C(=O)O)C(=O)O [+Cys (5x Met), cystine]
- restoration of growth by adding back cystine (in words) (H520; [2]): merely restored
- relative growth (H520; [3]): 5.2%
- relative growth (H520; [4]): 4.7%
- relative growth (H520; [5]): 9.4%
- relative growth (H520; [6]): 41.8%
- relative growth (H520; [7]): 110.4%
- relative growth (H661; [3]): 0.1%
- relative growth (H661; [4]): 0.1%
- relative growth (H661; [5]): 0.1%
- relative growth (H661; [6]): 0.1%
- relative growth (H661; [7]): 103.2%
- relative growth (H69; [3]): 1.2%
- relative growth (H69; [4]): 1.3%
- relative growth (H69; [5]): 1.2%
- relative growth (H69; [6]): 2.1%
- relative growth (H69; [7]): 51.8%
- restoration of growth by adding back cystine (in words) (K562; [2]): substantially restored to the levels of the control
- relative growth (K562; +Cys 0.01x (5x Met)): 1.9%
- relative growth (K562; +Cys 0.02x (5x Met)): 2.2%
- relative growth (K562; +Cys 0.05x (5x Met)): 9.5%
- relative growth (K562; +Cys 0.1x (5x Met)): 36.5%
- relative growth (K562; +Cys 0.5x (5x Met)): 101.5%

Molecule: N[C@@H](Cc1ccccc1)C(=O)O [phenylalanine]
- relief of suppressed growth by augmented supplementation (in words) (H661): not brought back
- relief of suppressed growth by augmented supplementation (in words) (U937): not brought back

Molecule: O=C(O)CCCC[C@@H]1SC[C@@H]2NC(=O)N[C@@H]21 [B7, biotin]
- relative growth (H520; [1]): 0.2%
- relative growth (H661; [1]): 0.2%
- relative growth (H69; [1]): 5.7%
- relative growth (HCC1187): 5.8%

Molecule: Cc1ncc(C[n+]2csc(CCO)c2C)c(N)n1 [B1, thiamine]
- relative growth (H520; [1]): 0.5%
- relative growth (H661; [1]): 1.5%
- relative growth (H69; [1]): 5.8%
- relative growth (HCC1187): 6.2%
- growth with vitamin supplementation in the absence of cystine (in words) (HCC1599): substantially restored
- growth with vitamin supplementation in the absence of cystine (in words) (HCT116): largely restored
- growth with vitamin supplementation in the absence of cystine (in words) (MDA-MB-453; 50×): growth was promoted

Molecule: calcium pantothenate [B5]
- relative growth (C4-28): 0.2%
- relative growth (GA10; [8]): 4.3%
- relative growth (H1437; [8]): 0.5%
- relative growth (H520; [1]): 0.3%
- relative growth (H661; [1]): 0.2%
- relative growth (H69; [1]): 5.5%
- relative growth (HCC1187): 0.0%
- relative growth (HCC1599; [8]): 4.9%
- relative growth (HCC70): 0.9%
- relative growth (HCT116; [8]): 56.4%
- relative growth (HL60): 0.1%
- relative growth (HepG2): 1.4%
- relative growth (Jurkat; [8]): 0.3%
- relative growth (MDA-MB-231): 0.2%
- relative growth (MDA-MB-453; [8]): 104.4%
- relative growth (PC-3): 0.8%
- relative growth (U937; [8]): 0.0%
- relative growth (VCaP): 0.1%

Molecule: NC(=O)c1cccnc1 [B3, niacinamide]
- relative growth (H520; [1]): 0.3%
- relative growth (H661; [1]): 0.2%
- relative growth (H69; [1]): 5.3%
- relative growth (HCC1187): 3.4%

Molecule: N[C@@H](CCC(=O)N[C@@H](CS)C(=O)NCC(=O)O)C(=O)O [+Glut, glutathione]
- restoration of growth suppressed by cystine dropout (in words) (GA10; 10× supplementation): not significantly
- restoration of growth suppressed by cystine dropout (in words) (H1437; 10× supplementation): substantially restored the suppressed growth
- relative growth (H520; [9]): 21.3%
- relative growth (H520; —Cys, +Glut 10x, CellTiter-Glo): 71.3%
- relative growth (H520; —Cys, +Glut 50x, CellTiter-Glo): 97.8%
- relative growth (H520; [10]): 105.7%
- relative growth (H661; [9]): 0.2%
- relative growth (H661; —Cys, +Glut 10x, CellTiter-Glo): 13.0%
- relative growth (H661; —Cys, +Glut 50x, CellTiter-Glo): 75.4%
- relative growth (H661; [10]): 41.1%
- restoration of growth suppressed by cystine dropout (in words) (H69; 10× supplementation): not significantly
- relative growth (H69; [9]): 1.4%
- relative growth (H69; —Cys, +Glut 10x, CellTiter-Glo): 2.1%
- relative growth (H69; —Cys, +Glut 50x, CellTiter-Glo): 3.6%
- relative growth (H69; [10]): 2.8%
- restoration of growth suppressed by cystine dropout (in words) (Jurkat; 10× supplementation): substantially restored the suppressed growth
- relative growth (K562; +Glut 2.5x): 16.2%
- relative growth (K562; +Glut 10x): 78.8%
- relative growth (K562; +Glut 50x): 84.4%
- relative growth (K562; +Glut 100x): 98.9%
